What is called EC50 is the concentration at which the effect is half-maximal. For orientation: CC50 means the concentration giving 50% cytotoxicity.

The test system of series [1] is recombinant NL4-3 virus (nef section replaced with Renilla luciferase gene) in MT-2 cells. Kind of series: HIV cell culture assay (antiviral activity, luciferase readout). As to conditions: Renilla, NL43, MT-2 cells infected for 4-5 days with recombinant NL4-3 Renilla luciferase virus. It is filed as cell-based. The protocol: HIV cell culture assay—MT-2 cells, 293T cells and the proviral DNA clone of NL4-3 virus were obtained from the NIH AIDS Research and Reference Reagent Program. MT-2 cells were propagated in RPMI 1640 media supplemented with 10% heat inactivated fetal bovine serum (FBS), […]. The 293T cells were propagated in DMEM media supplemented with 10% heat inactivated FBS, […]. A recombinant NL4-3 proviral clone, in which a section of the nef gene was replaced with the Renilla luciferase gene, was used to make the reference virus used in these studies. The recombinant virus was prepared through transfection of the recombinant NL4-3 proviral clone into 293T cells using Transit-293 Transfection Reagent from Mirus Bio LLC (Madison, WI). Supernatant was harvested after 2-3 days and the amount of virus present was titered in MT-2 cells using luciferase enzyme activity as a marker by measuring luciferase enzyme activity. Luciferase was quantitated using the EnduRen Live Cell Substrate from Promega (Madison, WI). Antiviral activities of compounds toward the recombinant virus were quantified by measuring luciferase activity in MT-2 cells infected for 4-5 days with the recombinant virus in the presence of serial dilutions of the compound.
The 50% effective concentration (EC50) was calculated by using the exponential form of the median effect equation where (Fa)=1/[1+(ED50/drug conc.)m](Johnson V A, Byington R T. Infectivity Assay. In Techniques in HIV Research. ed. Aldovini A, Walker B D. 71-76. New York: Stockton Press. 1990). Curve fitting and analysis were performed with ActivityBase XE Runner software version 9.1.0.4 using model 203 (ID Business Solutions, LTD, Guildford, UK).

A short description of series [2]: Compound cytotoxicity, XTT-based colorimetric assay. It is filed as cell-based. The following applies: human; uninfected MT2 cells, day 4, XTT; read-out: CC50. The protocol: Compound cytotoxicity and the corresponding CC50 values were determined using the same protocol as described in the antiviral assay except that uninfected cells were used. Cytotoxicity was assessed on day 4 in uninfected MT2 cells by using an XTT (2,3-bis[2-Methoxy-4-nitro-5-sulfophenyl]-2H-tetrazolium-5-carboxyanilide inner salt)-based colorimetric assay (Sigma-Aldrich, St Louis, Mo).

With `Cc1cc(C2CCC(F)(F)CC2)nc2nc([C@H](Cc3cc(F)cc(F)c3)NC(=O)Cn3nc(C4CC4)c4c3C[C@@H]3C[C@H]43)n(-c3ccc(Cl)c4c(NS(C)(=O)=O)nn(CCN5C[C@H](F)C[C@H](F)C5)c34)c(=O)c12` (atropisomer, axis not shown; (P)) [Example 1, N-[(1S)-1-[(3P)-3-(4-chloro-1-{2-[(3R,5S)-3,5-difluoropiperidin-1-yl]ethyl}-3-methanesulfonamido-1H-indazol-7-yl)-7-(4,4-difluorocyclohexyl)-5-methyl-4-oxo-3H,4H-pyrido[2,3-d]pyrimidin-2-yl]-2-(3,5-difluorophenyl)ethyl]-2-[(2S,4S)-9-cyclopropyl-7,8-diazatricyclo[4.3.0.0^2,^4]nona-1(6),8-dien-7-yl]acetamide], the EC50 in series [1] came out at 0.009 nM. Moreover, the CC50 at 4 days in series [2] was more than 50 nM. The like results for `Cc1cc(C2CCC(F)(F)CC2)nc2nc([C@H](Cc3cc(F)cc(F)c3)NC(=O)Cn3nc(C4CC4)c4c3C[C@@H]3C[C@H]43)n(-c3ccc(Cl)c4c(NS(C)(=O)=O)nn(CCN5CCCC(F)(F)C5)c34)c(=O)c12` (atropisomer, axis not shown; (P)) [Example 2, N-[(1S)-1-[(3P)-3-{4-chloro-1-[2-(3,3-difluoropiperidin-1-yl)ethyl]-3-methanesulfonamido-1H-indazol-7-yl}-7-(4,4-difluorocyclohexyl)-5-methyl-4-oxo-3H,4H-pyrido[2,3-d]pyrimidin-2-yl]-2-(3,5-difluorophenyl)ethyl]-2-[(2S,4S)-9-cyclopropyl-7,8-diazatricyclo[4.3.0.0^2,^4]nona-1(6),8-dien-7-yl]acetamide] were, in that order, 0.008 nM and more than 50 nM.

Consider `Cc1cc(C2CCC(F)(F)CC2)nc2nc([C@H](Cc3cc(F)cc(F)c3)NC(=O)Cn3nc(C4CC4)c4c3C[C@@H]3C[C@H]43)n(-c3ccc(Cl)c4c(NS(C)(=O)=O)nn(CCN5CCCC(F)(F)CC5)c34)c(=O)c12` (atropisomer, axis not shown; (P)) [Example 3, N-[(1S)-1-[(3P)-3-{4-chloro-1-[2-(4,4-difluoroazepan-1-yl)ethyl]-3-methanesulfonamido-1H-indazol-7-yl}-7-(4,4-difluorocyclohexyl)-5-methyl-4-oxo-3H,4H-pyrido[2,3-d]pyrimidin-2-yl]-2-(3,5-difluorophenyl)ethyl]-2-[(2S,4S)-9-cyclopropyl-7,8-diazatricyclo[4.3.0.0^2,^4]nona-1(6),8-dien-7-yl]acetamide], for which, in series [1], the EC50 is 0.009 nM. The CC50 at 4 days in series [2] was more than 50 nM.

For the compound `Cc1cc(C2CCC(F)(F)CC2)nc2nc([C@H](Cc3cc(F)cc(F)c3)NC(=O)Cn3nc(C4CC4)c4c3C[C@@H]3C[C@H]43)n(-c3ccc(Cl)c4c(NS(C)(=O)=O)nn(CCN5C[C@H]6CC[C@@H](C5)O6)c34)c(=O)c12` (atropisomer, axis not shown; (P)) [Example 4, N-[(1S)-1-[(3P)-3-(4-chloro-3-methanesulfonamido-1-{2-[(1R,5S)-8-oxa-3-azabicyclo[3.2.1]octan-3-yl]ethyl}-1H-indazol-7-yl)-7-(4,4-difluorocyclohexyl)-5-methyl-4-oxo-3H,4H-pyrido[2,3-d]pyrimidin-2-yl]-2-(3,5-difluorophenyl)ethyl]-2-[(2S,4S)-9-cyclopropyl-7,8-diazatricyclo[4.3.0.0^2,^4]nona-1(6),8-dien-7-yl]acetamide], the EC50 in series [1] was found to be 0.007 nM. Moreover, the CC50 at 4 days in series [2] was more than 50 nM.

For the compound `Cc1cc(C2CCC(F)(F)CC2)nc2nc([C@H](Cc3cc(F)cc(F)c3)NC(=O)Cn3nc(C(F)F)c4c3C(F)(F)[C@@H]3C[C@H]43)n(-c3ccc(Cl)c4c(NS(C)(=O)=O)nn(CCN5C[C@H](F)C[C@H](F)C5)c34)c(=O)c12` (atropisomer, axis not shown; (P)) [Example 5, N-[(1S)-1-[(3P)-3-(4-chloro-1-{2-[(3R,5S)-3,5-difluoropiperidin-1-yl]ethyl}-3-methanesulfonamido-1H-indazol-7-yl)-7-(4,4-difluorocyclohexyl)-5-methyl-4-oxo-3H,4H-pyrido[2,3-d]pyrimidin-2-yl]-2-(3,5-difluorophenyl)ethyl]-2-[(2S,4R)-9-(difluoromethyl)-5,5-difluoro-7,8-diazatricyclo[4.3.0.0^2,4]nona-1(6),8-dien-7-yl]acetamide], in series [1], the EC50 turned out to be 0.009 nM. For the same compound, the CC50 at 4 days in series [2] is more than 20000 nM. `Cc1cc(C2CCC(F)(F)CC2)nc2nc([C@H](Cc3cc(F)cc(F)c3)NC(=O)Cn3nc(C(F)F)c4c3C(F)(F)[C@@H]3C[C@H]43)n(-c3ccc(Cl)c4c(NS(C)(=O)=O)nn(C[C@@H](C)N5CC(C)(C)OC(C)(C)C5)c34)c(=O)c12` (atropisomer, axis not shown; (P)) [Example 705, N-[(1S)-1-[(3P)-3-{4-chloro-3-methanesulfonamido-1-[(2R)-2-(2,2,6,6-tetramethylmorpholin-4-yl)propyl]-1H-indazol-7-yl}-7-(4,4-difluorocyclohexyl)-5-methyl-4-oxo-3H,4H-pyrido[2,3-d]pyrimidin-2-yl]-2-(3,5-difluorophenyl)ethyl]-2-[(2S,4R)-9-(difluoromethyl)-5,5-difluoro-7,8-diazatricyclo[4.3.0.0^2,^4]nona-1(6),8-dien-7-yl]acetamide]: the EC50 in series [1] worked out at 0.021 nM. On the same count and under the same terms, the result for `Cc1cc(C2(F)CCC(F)(F)CC2)nc2nc([C@H](Cc3cc(F)cc(F)c3)NC(=O)Cn3nc(C(F)F)c4c3C(F)(F)[C@@H]3C[C@H]43)n(-c3ccc(Cl)c4c(NS(C)(=O)=O)nn(C[C@@H](C)N5CC(C)(C)OC(C)(C)C5)c34)c(=O)c12` (atropisomer, axis not shown; (P)) [Example 707, N-[(1S)-1-[(3P)-3-{4-chloro-3-methanesulfonamido-1-[(2R)-2-(2,2,6,6-tetramethylmorpholin-4-yl)propyl]-1H-indazol-7-yl}-5-methyl-4-oxo-7-(1,4,4-trifluorocyclohexyl)-3H,4H-pyrido[2,3-d]pyrimidin-2-yl]-2-(3,5-difluorophenyl)ethyl]-2-[(2S,4R)-9-(difluoromethyl)-5,5-difluoro-7,8-diazatricyclo[4.3.0.0^2,^4]nona-1(6),8-dien-7-yl]acetamide] reads 0.038 nM; that for `Cc1cc(C2(F)CCC(F)(F)CC2)nc2nc([C@H](Cc3cc(F)cc(F)c3)NC(=O)Cn3nc(C(F)F)c4c3C(F)(F)[C@@H]3C[C@H]43)n(-c3ccc(Cl)c4c(NS(C)(=O)=O)nn([C@H](C)C(=O)N5C[C@H](F)C[C@H](F)C5)c34)c(=O)c12` (atropisomer, axis not shown; (P)) [Example 755, N-[(1S)-1-[(3P)-3-{4-chloro-1-[(2R)-1-[(3R,5S)-3,5-difluoropiperidin-1-yl]-1-oxopropan-2-yl]-3-methanesulfonamido-1H-indazol-7-yl}-5-methyl-4-oxo-7-(1,4,4-trifluorocyclohexyl)-3H,4H-pyrido[2,3-d]pyrimidin-2-yl]-2-(3,5-difluorophenyl)ethyl]-2-[(2S,4R)-9-(difluoromethyl)-5,5-difluoro-7,8-diazatricyclo[4.3.0.0^2,^4]nona-1(6),8-dien-7-yl]acetamide], 0.027 nM; that for `Cc1cc(C2CCC(F)(F)CC2)nc2nc([C@H](Cc3cc(F)cc(F)c3)NC(=O)Cn3nc(C4CC4)c4c3C[C@@H]3C[C@H]43)n(-c3ccc(Cl)c4c(NS(C)(=O)=O)nn(C[C@@H](C)N5CC(C)(C)OC(C)(C)C5)c34)c(=O)c12` (relative stereo) [Example 706, N-[(1S)-1-[(3P)-3-{4-chloro-3-methanesulfonamido-1-[(2R)-2-(2,2,6,6-tetramethylmorpholin-4-yl)propyl]-1H-indazol-7-yl}-7-(4,4-difluorocyclohexyl)-5-methyl-4-oxo-3H,4H-pyrido[2,3-d]pyrimidin-2-yl]-2-(3,5-difluorophenyl)ethyl]-2-[(2R*,4R*)-9-cyclopropyl-7,8-diazatricyclo[4.3.0.0^2,^4]nona-1(6),8-dien-7-yl]acetamide], 0.015 nM. As for `Cc1cc(C2(F)CCC(F)(F)CC2)nc2nc([C@H](Cc3cc(F)cc(F)c3)NC(=O)Cn3nc(C4CC4)c4c3C[C@@H]3C[C@H]43)n(-c3ccc(Cl)c4c(NS(C)(=O)=O)nn([C@H](C)C(=O)N5C[C@H](F)C[C@H](F)C5)c34)c(=O)c12` (relative stereo) [Example 756, N-[(1S)-1-[(3P)-3-{4-chloro-1-[(2R)-1-[(3R,5S)-3,5-difluoropiperidin-1-yl]-1-oxopropan-2-yl]-3-methanesulfonamido-1H-indazol-7-yl}-5-methyl-4-oxo-7-(1,4,4-trifluorocyclohexyl)-3H,4H-pyrido[2,3-d]pyrimidin-2-yl]-2-(3,5-difluorophenyl)ethyl]-2-[(2R*,4R*)-9-cyclopropyl-7,8-diazatricyclo[4.3.0.0^2,^4]nona-1(6),8-dien-7-yl]acetamide], the EC50 in series [1] came out at 0.037 nM.

(Values after US12594276B2, “Inhibitors of human immunodeficiency virus replication” (ViiV Healthcare UK (No.5) Limited, priority 2024, dated 2026).)
